Source: patent publication EP4741383A1, “COMPOUND AND USE THEREOF AS ANTI-CANCER DRUG” (Tyligand Bioscience (Shanghai) Limited, priority 2023, dated 2025)

Key:
Assay type in all cases: biochemical
[1] = target: T1, SHP1 (Homo sapiens, UniProt P29350); assay: Tyrosine phosphatase selectivity (pNPP substrate), SHP1; conditions: for IC50: SHP1, pNPP substrate; for IC50PTP/IC50SHP2 SHP1: selectivity ratio SHP1 over SHP2
T1 construct: made in house; host or cells: E. coli
Method: (§1) This experiment evaluated the selectivity of the disclosed compounds against tyrosine phosphatases, including SHP1, HePTP, Laforin, LMWPTP, LYP, PTP1B, PRL2, SSU72, VHR, FAP1, STEP, CDC14A, CD45, MEG2, and PP5, all expressed and purified from E. coli.
(§2) Phosphatase activity was measured using p-nitrophenyl phosphate (pNPP) (Fisher Scientific) as the substrate in 50 mM 3,3-dimethylglutaric acid buffer (pH 7.0, containing 1 mM EDTA), with ionic strength adjusted to 0.15 M with NaCl. […] After 10-60 minutes, the reaction was quenched by adding 20 µL of 5 N NaOH. Wells without enzyme were used as controls for correction. The amount of the product, p-nitrophenol, was determined by measuring the absorbance at 405 nm using a Spectra MAX340 microplate spectrophotometer (Molecular Devices), with a molar extinction coefficient of 18000 M^-1cm^-1.
(§3) Data were analyzed using GraphPad Prism software. Dose-response curves were obtained by fitting data using the nonlinear S-curve regression Dose-response-inhibition equation, and IC50 values were calculated.

[2] = target: T2, HePTP (Homo sapiens, UniProt P35236); assay: Tyrosine phosphatase selectivity (pNPP substrate), HePTP; conditions: for IC50: HePTP, pNPP substrate; for IC50PTP/IC50SHP2 HePTP: selectivity ratio HePTP over SHP2
T2 construct: made in house; host or cells: E. coli
T2 sequence (P35236 1-360): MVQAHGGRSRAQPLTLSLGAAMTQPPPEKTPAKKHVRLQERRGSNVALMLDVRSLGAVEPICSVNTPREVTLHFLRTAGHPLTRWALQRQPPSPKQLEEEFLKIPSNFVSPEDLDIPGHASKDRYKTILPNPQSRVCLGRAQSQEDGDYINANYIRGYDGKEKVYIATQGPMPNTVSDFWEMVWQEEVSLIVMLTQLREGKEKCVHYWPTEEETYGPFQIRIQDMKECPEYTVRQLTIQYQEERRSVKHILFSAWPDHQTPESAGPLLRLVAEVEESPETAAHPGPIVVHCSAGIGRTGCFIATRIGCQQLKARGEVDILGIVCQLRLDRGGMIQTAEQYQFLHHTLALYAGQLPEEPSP
Method: as §1, §2, §3

[3] = target: FAP1; assay: Tyrosine phosphatase selectivity (pNPP substrate), FAP1; conditions: selectivity ratio FAP1 over SHP2
Method: as §1, §2, §3

[4] = target: T3, CDC14A (Homo sapiens, UniProt Q9UNH5); assay: Tyrosine phosphatase selectivity (pNPP substrate), CDC14A; conditions: for IC50: CDC14A, pNPP substrate; for IC50PTP/IC50SHP2 CDC14A: selectivity ratio CDC14A over SHP2
T3 construct: made in house; host or cells: E. coli
T3 sequence (Q9UNH5 1-594): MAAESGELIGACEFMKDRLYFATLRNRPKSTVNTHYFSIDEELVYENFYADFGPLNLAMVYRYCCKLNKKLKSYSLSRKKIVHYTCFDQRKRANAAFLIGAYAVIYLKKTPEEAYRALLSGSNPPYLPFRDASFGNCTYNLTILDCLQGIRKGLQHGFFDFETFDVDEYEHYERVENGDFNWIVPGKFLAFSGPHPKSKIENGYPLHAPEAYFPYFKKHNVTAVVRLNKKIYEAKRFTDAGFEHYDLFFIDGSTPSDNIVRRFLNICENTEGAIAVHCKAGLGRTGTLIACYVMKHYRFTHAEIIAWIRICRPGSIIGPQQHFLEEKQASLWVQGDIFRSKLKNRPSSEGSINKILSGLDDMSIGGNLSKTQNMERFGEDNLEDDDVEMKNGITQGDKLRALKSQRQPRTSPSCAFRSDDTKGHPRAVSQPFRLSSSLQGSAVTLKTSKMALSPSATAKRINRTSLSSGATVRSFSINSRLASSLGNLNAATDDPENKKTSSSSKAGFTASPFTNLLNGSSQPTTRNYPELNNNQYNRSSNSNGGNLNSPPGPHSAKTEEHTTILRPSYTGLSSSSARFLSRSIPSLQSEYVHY
Method: as §1, §2, §3

[5] = target: T4, CD45 (Homo sapiens, UniProt P08575); assay: Tyrosine phosphatase selectivity (pNPP substrate), CD45; conditions: for IC50: CD45, pNPP substrate; for IC50PTP/IC50SHP2 CD45: selectivity ratio CD45 over SHP2
T4 construct: made in house; host or cells: E. coli
T4 sequence (P08575 26-1306): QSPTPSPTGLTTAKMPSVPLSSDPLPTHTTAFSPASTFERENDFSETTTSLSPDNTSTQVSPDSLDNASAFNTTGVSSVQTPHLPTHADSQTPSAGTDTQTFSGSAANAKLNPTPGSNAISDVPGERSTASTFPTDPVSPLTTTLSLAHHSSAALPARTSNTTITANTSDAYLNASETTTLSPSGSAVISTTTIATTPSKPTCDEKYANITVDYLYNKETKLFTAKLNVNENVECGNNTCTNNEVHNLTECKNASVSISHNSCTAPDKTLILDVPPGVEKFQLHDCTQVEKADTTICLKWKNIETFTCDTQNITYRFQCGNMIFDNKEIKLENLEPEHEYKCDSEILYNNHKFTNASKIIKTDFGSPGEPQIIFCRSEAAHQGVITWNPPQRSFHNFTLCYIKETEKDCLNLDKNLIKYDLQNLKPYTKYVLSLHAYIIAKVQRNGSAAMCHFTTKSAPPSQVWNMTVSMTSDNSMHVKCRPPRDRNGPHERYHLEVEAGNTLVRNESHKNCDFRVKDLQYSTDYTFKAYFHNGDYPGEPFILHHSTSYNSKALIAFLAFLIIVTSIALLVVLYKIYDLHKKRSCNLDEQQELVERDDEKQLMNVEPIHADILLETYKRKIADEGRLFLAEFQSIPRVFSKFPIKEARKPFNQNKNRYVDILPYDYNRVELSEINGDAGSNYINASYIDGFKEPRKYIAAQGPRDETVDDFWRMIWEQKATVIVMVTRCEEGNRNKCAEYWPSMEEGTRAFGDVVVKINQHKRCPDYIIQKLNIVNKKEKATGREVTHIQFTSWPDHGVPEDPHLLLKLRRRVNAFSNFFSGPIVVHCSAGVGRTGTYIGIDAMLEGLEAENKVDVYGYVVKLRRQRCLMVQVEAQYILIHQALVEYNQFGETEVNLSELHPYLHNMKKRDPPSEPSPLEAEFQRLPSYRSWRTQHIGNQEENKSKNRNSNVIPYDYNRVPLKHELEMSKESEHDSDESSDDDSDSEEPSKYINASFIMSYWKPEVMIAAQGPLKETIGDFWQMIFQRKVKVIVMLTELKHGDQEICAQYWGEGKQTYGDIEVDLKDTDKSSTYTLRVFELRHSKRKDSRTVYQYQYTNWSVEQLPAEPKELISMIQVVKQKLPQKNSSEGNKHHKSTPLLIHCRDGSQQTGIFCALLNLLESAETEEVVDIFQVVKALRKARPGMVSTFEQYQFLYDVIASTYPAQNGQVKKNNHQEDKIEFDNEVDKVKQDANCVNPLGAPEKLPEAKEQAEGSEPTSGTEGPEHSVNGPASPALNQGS
Method: as §1, §2, §3

T1 sequence (P29350 whole entry): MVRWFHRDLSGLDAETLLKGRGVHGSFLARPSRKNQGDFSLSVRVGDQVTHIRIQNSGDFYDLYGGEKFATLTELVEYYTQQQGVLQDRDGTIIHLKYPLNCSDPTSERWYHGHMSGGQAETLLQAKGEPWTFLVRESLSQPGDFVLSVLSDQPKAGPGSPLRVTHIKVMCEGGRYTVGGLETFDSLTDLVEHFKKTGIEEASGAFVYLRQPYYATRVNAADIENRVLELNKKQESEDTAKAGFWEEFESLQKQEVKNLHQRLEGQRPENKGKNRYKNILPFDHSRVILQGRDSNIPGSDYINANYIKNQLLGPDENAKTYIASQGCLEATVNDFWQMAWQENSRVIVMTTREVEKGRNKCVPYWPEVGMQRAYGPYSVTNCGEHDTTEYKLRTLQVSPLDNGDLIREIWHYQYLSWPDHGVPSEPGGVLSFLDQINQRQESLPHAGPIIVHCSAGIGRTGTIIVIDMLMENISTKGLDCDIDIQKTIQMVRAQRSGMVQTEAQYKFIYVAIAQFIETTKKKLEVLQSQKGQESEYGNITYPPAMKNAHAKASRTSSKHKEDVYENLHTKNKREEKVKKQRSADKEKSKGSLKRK

Row | SMILES | IC50 [1] | IC50PTP/IC50SHP2 SHP1 [1] | IC50 [2] | IC50PTP/IC50SHP2 HePTP [2] | IC50PTP/IC50SHP2 FAP1 [3] | IC50 [4] | IC50PTP/IC50SHP2 CDC14A [4] | IC50 [5] | IC50PTP/IC50SHP2 CD45 [5]
1 | O=C(Nc1ccc(-c2cc3cc(F)c(-c4nnn[nH]4)cc3n2C2CCC2)cc1)C(=O)Nc1ccc(N2CCOCC2)cc1 [Example 47] | 120 nM | 1.9 | 800 nM | 12.6 | 24.2 |  | 1587 | 1060 nM | 16.8
2 | CC1(n2c(-c3ccc(NC(=O)C(=O)Nc4ccc(N5CCC6(CCOC6)CC5)cc4)cc3)cc3cc(F)c(-c4nnn[nH]4)cc32)CCC1 [Example 68] | 383 nM | 8.0 | 1170 nM | 29.3 | 11.7 | > 25000 nM | 520.8 | 3480 nM | 72.5
3 | O=C(Nc1ccc(-c2cc3cc(F)c(-c4nnn[nH]4)cc3n2C2CCC2)cc1)C(=O)Nc1ccc(N2CC3COCC3C2)cc1 (stereo not drawn) [Example 114] | 100 nM | 1.3 | 1060 nM | 14.7 | 26.3 |  | 1388 | 1810 nM | 25.1
4 | O=C(Nc1ccc(-c2oc3cc(F)c(-c4nnn[nH]4)cc3c2C2CCC2)cc1)C(=O)Nc1ccc(N2CCC3(CCOC3)CC2)cc1 [Example 125] | 170 nM | 3.3 | 35900 nM | 703.9 | 145.9 | > 100000 nM | 1960.8 | 16100 nM | 315.7
5 | O=C(Nc1ccc(-c2ccsc2)cc1)C(=O)Nc1ccc(-c2cc3ccc(-c4nnn[nH]4)nc3n2C2CCC2)cc1 [Example 129] | 700 nM | 11.9 | > 20000 nM | 339.0 | 71.2 | 34600 nM | 586.4 | 41500 nM | 703.4
6 | O=C(Nc1ccc(-c2ccsc2)cc1)C(=O)Nc1ccc(-c2cc3cnc(-c4nnn[nH]4)nc3n2C2CCC2)cc1 [Example 131] | 800 nM | 30.8 | 6100 nM | 234.6 | 423.1 | > 50000 nM | 1923.1 | 25200 nM | 969.2

More lines, in order of falling IC50 [1], values ahead:

Row | IC50 [1] | IC50PTP/IC50SHP2 SHP1 [1] | IC50 [2] | IC50PTP/IC50SHP2 HePTP [2] | IC50PTP/IC50SHP2 FAP1 [3] | IC50 [4] | IC50PTP/IC50SHP2 CDC14A [4] | IC50 [5] | IC50PTP/IC50SHP2 CD45 [5] | SMILES
7 | 5620 nM | 7.8 | > 100000 nM | 139.7 | 139.7 | > 100000 nM | 139.7 | > 100000 nM | 139.7 | Cn1cc(-c2ccc(NC(=O)C(=O)Nc3ccc(-c4cc5cc(F)c(-c6nnc(C(F)(F)F)[nH]6)cc5n4C4CCC4)cc3)cc2)cn1 [Example 124]
8 | 800 nM | 7.4 | 1030 nM | 9.5 |  | 16000 nM | 148 |  |  | Cn1c(-c2cccc(NC(=O)C(=O)Nc3ccc(-c4ccsc4)cc3)c2)c(I)c2cc(C(=O)O)c(O)cc21 [Example 11a-1, reference compound]
9 | 600 nM | 20.7 | 4500 nM | 155.2 | 672.4 | > 50000 nM | 1724.1 | > 50000 nM | 1724.1 | O=C(Nc1ccc(-c2ccsc2)cc1)C(=O)Nc1ccc(-c2cc3cc(F)c(-c4nnn[nH]4)cc3n2C2CCC2)cc1 [Example 4]
10 | 600 nM | 24.0 | > 20000 nM | 800 | 120 | > 50000 nM | 2000 | > 50000 nM | 2000 | O=C(Nc1ccc(-c2ccsc2)cc1)C(=O)Nc1ccc(-c2oc3cc(F)c(-c4nnn[nH]4)cc3c2C2CCC2)cc1 [Example 130]
11 | 600 nM | 22.2 | 5700 nM | 211.1 | 500 | > 50000 nM | 1851.9 | 23700 nM | 877.8 | O=C(Nc1ccc(-c2ccsc2)cc1)C(=O)Nc1ccc(-c2cc3cc(F)c(-c4nnn[nH]4)nc3n2C2CCC2)cc1 [Example 132]
12 | 320 nM | 2.3 | 1330 nM | 9.4 | 51.8 | > 100000 nM | 709.2 | 4270 nM | 30.3 | Cn1cc(-c2ccc(NC(=O)C(=O)Nc3ccc(-c4cc5cc(F)c(-c6noc(=O)[nH]6)cc5n4C4CCC4)cc3)cc2)cn1 [Example 123]
13 | 110 nM | 3.2 | 950 nM | 27.9 | 68.8 |  | 2941 | 2620 nM | 77.0 | O=C(Nc1ccc(-c2cc3cc(F)c(-c4nnn[nH]4)cc3n2C2CCC2)cc1)C(=O)Nc1ccc(N2CCC3(CCOC3)CC2)cc1 [Example 67]
